# Measurements published in patent US9181309B1, “Peptide regulation of maize defense responses” (The United States of America, as represented by the …, priority 2011, dated 2015).
# Experiments:
# Format in all cases: in vivo, Zea mays
# [1] = system: defense metabolites in maize leaves; experiment: Accumulation of defense metabolites within treated leaves (internal pools)
# From the text: Induced terpene production is vital to anti-herbivore defenses in many plant species (Unsicker et al., Curr Opin Plant Biol. 12:479, 2009; Tholl, Curr Opin Plant Biol. 9:297, 2006; Keeling and Bohlmann, New Phytol 170:657, 2006). […] Expression of genes encoding the relevant biosynthetic enzymes, Anthranilic Acid Methyl Transferase 1 (AAMT1) and Indole-Glycerol Phosphate Lyase (IGL) were induced by both peptide and the insect elicitor ([…]., Plant Physiol 153:1795, 2010; Frey et al., Proc Natl Acad Sci USA. 97:14801, 2000). In addition to proteinaceous defenses, maize benzoxazinoids contribute to direct defenses against both herbivores and pathogens ([…] Agric Food Chem 57:1677, 2009). […] Oikawa et al., Phytochemistry. 56:669, 2001; Huffaker et al., Plant Physiol. 155:1325, 2011). […] It is hypothesized that simultaneous activation of both IGL and BX1 by ZmPep3 results in increased flux through the benzoxazinoid pathway to produce HDMBOA-Glc.
# [2] = system: jasmonic acid and ethylene production in maize leaves; experiment: Phytohormone (JA, ET) production in treated leaves
# From the text: A further embodiment is ZmPEP3 regulated production of defense-related metabolites. The elicitor-induced phytohormones JA and ethylene (ET) function as signals integral to initiation of protective responses against pathogens and herbivores (Howe and Jander, Annu Rev Plant Biol. 59:41, 2008).
# [3] = system: volatile emission from maize leaves; experiment: Volatile collection and GC analysis of emitted volatiles from excised maize leaves
# Protocol: Volatiles were collected by a previously described method (Schmelz et al., Planta. 214:171, 2001). Briefly, excised leaves were placed in glass cylinders (Analytical Research Systems, Gainesville, Fla., USA) and maintained under their original lighting conditions. Clean, humidified air was passed through the cylinders (550 ml/min) and the leaf-emitted volatiles were trapped on 50 mg Super Q (80/100 mesh; Alltech, Deerfield, Ill., USA) for 30 minutes. Super Q traps were eluted with 150 μl methylene chloride with 400 ng of nonyl acetate added as an internal standard. At least three leaf replicates were used for each treatment. Volatiles were analyzed by gas chromatography-mass spectrometry (GC-MS) using an Agilent (Agilent Technologies, Inc., Santa Clara, Calif.) 7890A gas chromatograph (carrier gas; He at 1.2 ml min^−1; splitless injector, temperature 220° C., injection volume 1 μl) with an DB-1MS column (100% Dimethylpolysiloxane; 15 m long, 250 μm i.d., 0.1 μm film thickness). Temperatures were programmed from 40° C. (0.5 min hold) at 12° C. min^−1 to 180° C. then 220° C. (2.0 min hold for the post run). Signals were captured with a flame ionization detector (250° C.). The GC was coupled to an HP 5973 quadrupole-type mass selective detector with transfer line, source, and quadrupole temperatures of 230° C., 230° C. and 150° C., respectively. […] Volatile compounds were identified by comparison of retention times with authentic standards and by comparison of mass spectra with Wiley and NIST libraries.
substance,measurement,setting,value
ZmPEP3: 23 amino acid maize plant elicitor peptide TRTPPWPPCPPEEGSGGNGGSHN (SEQ ID NO: 3) (Zea mays),anthranilate and indole in leaves,[1]; following treatment,increased
same,HDMBOA-Glc accumulation,[1]; in vivo,increased accumulation
same,"anthranilate and indole accumulation, peptide vs Gln-18:3",[1]; in vivo,significantly greater accumulation
same,"accumulation of terpenes in internal pools, ZmPep3 vs Gln-18:3",[1]; measured prior to volatile collection,significantly greater accumulation of terpenes
same,jasmonic acid accumulation in leaves,[2]; ZmPEP3-treated leaves,found to accumulate
same,"JA and ET increases, ZmPep3 compared to Gln-18:3",[2]; low equivalent quantities,greater magnitude and longer duration
same,JA and ET synthesis,[2]; low equivalent quantities of either elicitor,elicitation of JA and ET synthesis
same,increase in total defense volatile emission compared to water-supplied leaves,[3]; 1.8 nMol peptide per gram of leaf material,91%
same,volatile profile vs water-supplied leaves,"[3]; 18 or 180 fMols of peptide per gram of leaf, 30 minutes collection",almost the same as leaves supplied with water
same,lowest concentration with significant increases in defense volatile emission,[3]; 30 minutes collection,1.8 pMol ZmPEP3 peptide per gram of leaf material
same,profile of volatile compounds emitted in thirty minutes,"[3]; GC, vs water-supplied leaves",Many molecules are detected
same,"difference in terpenes emitted, ZmPep3 versus Gln-18:3",[3]; equivalent molar concentrations,no significant quantitative difference
same,indole emission relative to damage alone,[3]; in vivo,increased above damage alone
same,spectrum of elicited volatile components compared with S. exigua herbivory,[3]; in vivo,same spectrum of volatile components
same,increase in DMNT emission over water-treated leaves,[3]; six hour period,6 fold
same,increase in alpha-bergamotene emission over water-treated leaves,[3]; six hour period,over a thousand fold
same,increase in beta-caryophyllene emission over water-treated leaves,[3]; six hour period,over 100 fold
same,increase in beta-farnesene emission over water-treated leaves,[3]; six hour period,over 900 fold
same,increase in indole emission over water-treated leaves,[3]; six hour period,over 100 fold
same,increase in nerolidol emission over water-treated leaves,[3]; six hour period,360 fold
